# Test results as given in PubChem BioAssay AID179 (DTP/NCI, 2004).
# Where “and” joins values, the source holds several entries; their conditions need not be identical. Equal entries are not always repeated. Calls of active or inactive are those of the source.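 Rule for the calls: active = compounds giving half or more protection of infected cells from virus-caused growth loss, again on retest; inactive = the rest.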 Where a SMILES comes first, the peptide text is derived from it.
# Test system: CEM cells HIV-1 protection, formazan growth assay
# Test: NCI AIDS Antiviral Assay
# Conditions: for IC50: measured here: growth of uninfected CEM cells
# How it was run: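 CEM (human) cells, HIV-1 infected vs uninfected, 5-point dosing, formazan growth read-out. Retest threshold 50% protection.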
SMILES,EC50 [µM],IC50,outcome
CC(C)CC(N)C(=O)NC(Cc1cnc[nH]1)C(=O)NC(CC(N)=O)C(=O)NC(C(=O)NC(CO)C(=O)NC(Cc1ccc(O)cc1)C(=O)NC(CO)C(=O)NC(C)C(=O)NC(CCCCN)C(=O)NC(CC(=O)O)C(=O)NC(CC(C)C)C(=O)O)C(C)O (configuration not stated) (H-LHNTSYSAKDL-OH; configuration not given here),> 50.1,> 50.1 µM,
O=C(COc1ccc(OCC(=O)N2C(=O)CSC2=Nc2ccccc2)cc1)N1C(=O)CSC1=Nc1ccccc1,> 200,25.7 µM,
CCOC(=O)Cn1c(=O)c2nc(SC)sc2n(-c2ccc(C)cc2)c1=S,> 200,> 200 µM,
COc1ccc2nc3n(c2c1)C(c1c(F)cccc1Cl)SC3 (configuration not stated),> 200,> 200 µM,
OCc1ccc2ccc3ccc(CO)nc3c2n1,> 389,263 µM,
O=C(NCCCCNCCCNC(=O)c1ccc([N+](=O)[O-])cc1)c1ccc([N+](=O)[O-])cc1,> 200,112 µM,
CC1(C)COC(=O)N1,> 1550,> 1550 µM,
CCCNC(=S)N/N=C/c1cccc(C)n1,> 200,11 µM,
CC1C(c2ccc3c(c2)OCO3)c2cc3c(cc2OC1N1CCCC1)OCO3 (configuration not stated),> 100,47.9 µM,
Cc1cc(-c2ccc(N=Nc3c(S(=O)(=O)O)cc4cccc(S(=O)(=O)O)c4c3O)c(C)c2)ccc1N=Nc1ccc2c(S(=O)(=O)O)ccc(N)c2c1O,,,inactive
CCOC(=O)c1ccc(Nc2cnc3ccc(C(F)(F)F)cc3n2)cc1,> 200,10.7 µM,
COC(=O)/C(=N\NC(N)=S)C(C#N)c1ccccc1 (configuration not stated),> 129,> 129 µM,
O=C1c2ccccc2/C=C\C(c2ccccc2)=N/N1c1ccccc1Cl,> 200,12.6 µM,
CC(=O)OCCOCn1c2ccccc2c2c3c(c4c5ccccc5n(COCCOC(C)=O)c4c21)C(=O)N(Cc1ccccc1)C3=O,,,inactive
CN(C)c1ccc(/C=C(/NC(=O)c2ccccc2)c2nc3ccc(Cl)cc3[nH]2)cc1,> 17.4,> 17.4 µM,
C[C@@H]1[C@@H](C)C(c2ccccc2)O[Si]1(C(C)(C)C)C(C)(C)C (some centres not stated),> 100,56.2 µM,
CCC[CH2][Sn]([CH2]CCC)([O]C(=O)c1c(F)cccc1F)[O]C(=O)c1c(F)cccc1F,> 9.55,1.91 µM,
O/N=C1/CCCC/C1=C\c1ccc(Cl)c(Cl)c1,,,inactive
COc1ccc(CC(=O)c2cc(OC)c(OC)cc2C)cc1OC,> 398,30.9 µM,
Cc1cc(Br)c(N2C3=C(CC4=C2CCCC4=O)C(=O)CCC3)c(Br)c1,> 100,21.9 µM,
CCCCCCCCCCCCCC(=O)OCC1OC(n2cc(F)c(=O)[nH]c2=O)C(NC(=O)OCc2ccccc2)C(OC(=O)CCCCCCCCCCCCC)C1O (configuration not stated),> 11.7,> 11.7 µM,

SMILES,EC50 [µM],IC50,outcome
COC(=O)/C=C1\C(CO[Si](C)(C)C(C)(C)C)OC(n2ccc(=O)[nH]c2=O)C1O[Si](C)(C)C(C)(C)C (configuration not stated),> 200,8.32 µM,
CS(=O)(=O)OCCN(CCOS(C)(=O)=O)c1ccc(C=Nc2ccc3oc(=O)ccc3c2)cc1,> 135,1.02 µM,
COC(=O)C1(F)C(=O)NC(=O)NC1OC (configuration not stated),> 1120,17.4 µM,
S=C1SCN(C2CCCCCCCCCCC2)CN1C1CCCCCCCCCCC1,,,inactive
COC1(c2ccc(C)cc2C)OC(=O)c2c(C)cccc21 (configuration not stated),,,inactive
CCOP(=O)(OCC)c1cc2cc(O)ccc2oc1=O,> 200,> 200 µM,
CN(C)CC1CCCCC1O (configuration not stated),> 1290,> 1290 µM,
COc1ccc(-c2cc(-c3ccc(Cl)cc3)n(C3OC(CO)C(O)C(O)C3O)c(=S)c2C#N)cc1 (configuration not stated),> 200,7.76 µM,
CCCCS(=O)CCC(N)C(=O)O (configuration not stated),> 100,> 100 µM,
CC(=O)c1c(-c2cccc3ccccc23)c(C#N)c(=S)n(C2OC(CO)C(O)C(O)C2O)c1-c1ccccc1 (configuration not stated),> 200,24 µM and > 200 µM,
Cc1ccc(S(=O)OCc2c(C)c(C)c(COS(=O)c3ccc(C)cc3)c(C)c2C)cc1 (configuration not stated),,,inactive
CC1OC(OC2C(OC(=O)[C@]34CCC(C)(C)CC3C3=CCC5[C@@]6(C)C[C@H](O)[C@H](OC7OC(COC8OC(CO)C(O)C(O)C8O)C(O)C(O)C7O)[C@@](C)(C(=O)O)C6CC[C@@]5(C)C3(C)CC4)OCC(O)C2O)C(O)C(O)C1OC1OCC(O)C(O)C1O (some centres not stated),> 110,> 110 µM,
CN(c1ccc(Cl)cc1)S(=O)(=O)c1ccccc1[N+](=O)[O-],> 200,24.5 µM,
CCCCCCc1ccc(C(=O)NO)cc1,> 200,91.2 µM,
COc1cc(/C=C/C(=O)c2c(=O)o[nH][n+]2-c2ccccc2)ccc1[O-],,,inactive
CCc1c([N+](=O)[O-])cc2c(c1[N+](=O)[O-])C(C)(C)CCC2C (configuration not stated),> 200,14.5 µM,
CC(=Nc1ccc([N+](=O)[O-])cc1)c1ccc(O)cc1,> 200,10.7 µM,
O=C(O)c1cc(NCc2cc(O)ccc2O)ccc1O,> 25.1,5.13 µM,
CC1CC[P+](C)(Cc2ccccc2)C1 (mixture of isomers),> 437,162 µM,
COC(=O)[C@](NC(=O)OCc1ccccc1)([C@@H](C)S(=O)c1ccc(C)cc1)C(F)(F)F (some centres not stated),> 200,29.5 µM,
O=C(Nc1ccc(S(=O)(=O)c2ccc(NC(=O)c3ccc(N=Nc4cc(S(=O)(=O)O)c5cccnc5c4O)cc3S(=O)(=O)O)cc2)cc1)c1ccc(N=Nc2cc(S(=O)(=O)O)c3cccnc3c2O)cc1S(=O)(=O)O,3.8,93.3 µM,

SMILES,EC50 [µM],IC50,outcome
C/C(=N\NC(=S)NNC(=S)N(C)c1ccccc1)c1ccccn1,> 52.5,0.427 µM,
Cc1ccc(C2=Nn3c(nc4sc5c(c4c3=O)CCCC5)SC2)cc1,> 200,> 200 µM,
CCOC(=O)C1(C/C=C\CBr)CCCC1=O (configuration not stated),> 200,33.9 µM,
CCOC(=O)C(=Cc1cccc(OC)c1)C(=O)OCC,> 129,14.8 µM,
COC(=O)c1cc(S(=O)(=O)NC2=NCC(C)NN2)c(S)cc1Cl (configuration not stated),> 200,17 µM,
CC(=O)O[C@H]1CCC2[C@@H]3CCC4=C(O)C(=O)C(C#N)C[C@]4(C)C3CC[C@@]21C (some centres not stated),,,inactive
O=c1cnn2c(n1)sc1ccc3ccccc3c12,> 50.1,> 50.1 µM,
O=C(CCCn1ccnc1[N+](=O)[O-])NCCn1cnc([N+](=O)[O-])n1,> 200,> 200 µM,
CC(C)OP(=O)(OC(C)C)c1ccc2c(c1)OCCOCCOCCOCCO2,> 200,> 200 µM,
O=C(NCc1cc(CNC(=O)c2cccc(O)c2O)cc(CNC(=O)c2cccc(O)c2O)c1)c1cccc(O)c1O,> 200,1.95 µM,
CC(C)(C)OC(=O)N[C@@H](Cc1ccccc1)CN1CCCC1C(=O)O (some centres not stated),> 3390,2570 µM,
C[C@]12CCC(=O)C=C1CC[C@H]1[C@@H]3CC[C@@]4(OCC4=O)[C@@]3(C)C[C@H](O)[C@@]12F,> 123,> 123 µM,
CCOC(=O)c1c(SCCN2CCCCC2)n(-c2ccccc2)c(=S)n(-c2ccccc2)c1=O,> 20,> 20 µM,
Cc1cn(C(C)OCCN(O)C(N)=O)c(=O)[nH]c1=O (configuration not stated),,,inactive
Cc1ccnc(NC(=S)Nc2cc(C)ccn2)c1,> 200,135 µM,
CC(C)(C)c1cc(C(C)(C)O)c2c(c1)C(C)(C)OS2(C)Cl (configuration not stated),> 200,112 µM,
C#CCOCn1cnc2c(=S)nc[nH]c21,> 9.12,> 9.12 µM,
CCOC(OCC)C(CC)[Se]c1ccccc1 (configuration not stated),> 87.1,> 87.1 µM,
O=c1oc2ccccc2c(O)c1/C=N\c1nc(-c2ccc(O)c(O)c2)cs1,> 200,3.24 µM,
CC1=C(C(N)=O)C(c2ccncc2)C(C#N)=C2SCC(=O)N12 (configuration not stated),> 200,> 200 µM,
CC1CC[C@]2(C(=O)O)CCC3(C)C(=CC(=O)C4[C@@]5(C)CCC(=O)C(C)(C)C5CC[C@]43C)[C@@H]2[C@H]1C (some centres not stated),,,inactive

SMILES,EC50 [µM],IC50,outcome
O=C1NCc2ccccc2S(=O)(=O)n2cccc21,> 200,120 µM,
O=C(O)Cc1[nH]c(=O)[nH]c(=O)c1CCl,> 100,> 100 µM,
O=C(CC1(O)C(=O)Nc2c(Cl)ccc(Cl)c21)c1ccc(F)cc1 (configuration not stated),> 372,70.8 µM,
CCC[CH2][Ge]([CH2]CCC)([CH2]CCC)[O]C(=O)C(OC(C)=O)c1ccccc1 (configuration not stated),> 151,4.27 µM,
O=C(O)/C(=C\c1ccc(F)cc1)c1ccccc1,> 537,309 µM,
COc1ccccc1N=C1SCC(=O)N1Cc1ccco1,> 135,89.1 µM,
C[N+](C)([O-])CCNC(=O)c1cccc2cc3ccccc3nc12,,,inactive
Cc1nc(C(N)=S)sc1C(=O)/C=C/c1c(O)ccc2ccccc12,> 53.7,42.7 µM,
COc1ccccc1Cn1nc(OC)c2cc([N+](=O)[O-])ccc21,> 151,> 151 µM,
O=C(O)C1COCN1C(=O)c1ccccc1SSc1ccccc1C(=O)N1COCC1C(=O)O (configuration not stated),> 200,> 200 µM,
O=C(Cc1ccccc1)NNc1nc(NNC(=O)c2ccncc2)nc(Nc2ccccc2)n1,> 200,> 200 µM,
COC1/C=C/OC2(C)Oc3c(C)c(O)c4c(O)c(cc(OCC(=O)N(Cc5ccccc5)Cc5ccccc5)c4c3C2=O)NC(=O)/C(C)=C/C=C/C(C)C(O)C(C)C(O)C(C)C(OC(C)=O)C1C (configuration not stated),,,inactive
C(=NCCCN1CCN(CCCN=Cc2cccc3ccccc23)CC1)c1cccc2ccccc12,> 200,46.8 µM,
CCOC(=N)CNC(=O)c1ccccc1,> 200,> 200 µM,
CN(C)c1ccc2c3c(c(=O)oc2c1)CCC3,> 79.4,> 79.4 µM,
N#CC1(c2nc3ccccc3o2)C(=O)C(=O)N(c2ccc(Cl)c(Cl)c2)C(=O)C1=O,> 302,282 µM,
CC(=N)OC1CC2CCC1(C)C2(C)C (configuration not stated),> 200,> 200 µM,
Cc1ccc(NC(=O)CC2SC(=Nc3cccc(Cl)c3C)NC2=O)cc1 (configuration not stated),> 240,110 µM,
Cc1nnc(N)s/c1=N/O,> 200,> 200 µM,
